# Results taken from patent US9856278B2, “Lysophosphatidylserine derivative” (THE UNIVERSITY OF TOKYO, priority 2014, dated 2018).
# Counter-ions that a name gives are not always drawn.
# What was measured:
# mouse GPR174 = biological target: T1, mouse GPR174 (Mus musculus, UniProt Q3U507); test: TGFα cleavage assay, agonistic activity against GPR174; assay type: cell-based; conditions: for GPR174/LPS3 agonistic activity: HEK293 cells transfected with AP labeled TGFα and mouse GPR174, graded against EC50 of Reference Compound 1; for EC50: HEK293 cells, mouse GPR174, AP-TGFα release, value in parentheses, read-out: GPR174/LPS3 EC50
# T1 construct: expressed in transfected cells; host or cells: HEK293 cells, transient transfection with pCAGGS vector (LipofectAMINE 2000)
# Description: (§1) In a Dulbecco's modified Eagle's medium (DMEM) containing 10% bovine fetal calf serum (FCS), HEK293 cells were suspended to give a density of 2.0×10^5 cells/mL and seeded in 4 mL portions in 60 mm dishes. After 24-hr culture in the presence of 5% CO2, transfection with various expression vectors was performed using LipofectAMINE 2000 (Invitrogen). For each 60 mm dish, a plasmid vector for AP labeled TGFα was used in an amount of 1 μg and a pCAGGS plasmid vector for mouse GPR34, P2Y10 or GPR174 was also used in an amount of 1 μg. The plasmid vectors were provided by the methods disclosed in Patent Documents 2 and 5. It should be noted that the AP labeled TGFα is a protein having a human placental alkaline phosphatase fused to the N terminal of membrane-bound pro-TGFα, and a plasmid vector for the AP labeled TGFα can be prepared based on the disclosure of Tokumaru et al., J Cell Biol 151, 209-220 (2000). Twenty-four hours after transfection, cells were dissociated using trypsin/EDTA, resuspended in the culture broth to give a density of 2.0×10^4 cells/well, and seeded in a 96-well plate. In the case of stimulation with compounds, a Hank's balanced salt solution (HBSS, containing 5 mM HEPES) was used. After standing for 30 minutes, test compounds were added at varying concentrations, followed by standing for an additional one hour in the presence of 5% CO2. The 96-well plate was centrifuged (190×g, 3 min) and 80 μL of the supernatant was transferred to another 96-well plate. A reaction buffer (40 mM Tris-HCl (pH 9.5)) containing 10 mM p-nitrophenyl phosphate (p-NPP) was added in an amount of 80 μL to both the supernatant and the cells. After OD405 measurement with a microplate reader (background), heating was done at 37° C. for an hour and then another OD405 measurement was performed. For each well, the background was subtracted from the absorbance measured the second time and the result was fitted to the following formula to calculate AP activity.
# (§2) Further, the values obtained by subtracting the AP activity (%) for the unstimulated group were plotted on the vertical axis to draw a graph. […] The EC50 values of the respective compounds are also cited in parentheses.
# mouse P2Y10 = biological target: T2, mouse P2Y10 (Mus musculus, UniProt Q8BFU7); test: TGFα cleavage assay, agonistic activity against P2Y10; assay type: cell-based; conditions: for P2Y10/LPS2 agonistic activity: HEK293 cells transfected with AP labeled TGFα and mouse P2Y10, graded against EC50 of Reference Compound 1; for EC50: HEK293 cells, mouse P2Y10, AP-TGFα release, value in parentheses, read-out: P2Y10/LPS2 EC50; for selectivity for P2Y10: against GPR34 and GPR174, from Table 3
# T2 construct: expressed in transfected cells; host or cells: HEK293 cells, transient transfection with pCAGGS vector (LipofectAMINE 2000)
# Description: as §1, §2
# mouse GPR34 = biological target: T3, mouse GPR34 (Mus musculus, UniProt Q9R1K6); test: TGFα cleavage assay, agonistic activity against GPR34; assay type: cell-based; conditions: HEK293 cells transfected with AP labeled TGFα and mouse GPR34; graded against EC50 of Reference Compound 1
# T3 construct: expressed in transfected cells; host or cells: HEK293 cells, transient transfection with pCAGGS vector (LipofectAMINE 2000)
# Description: as §1
# Further, the values obtained by subtracting the AP activity (%) for the unstimulated group were plotted on the vertical axis to draw a graph.
# T1 sequence (Q3U507 whole entry): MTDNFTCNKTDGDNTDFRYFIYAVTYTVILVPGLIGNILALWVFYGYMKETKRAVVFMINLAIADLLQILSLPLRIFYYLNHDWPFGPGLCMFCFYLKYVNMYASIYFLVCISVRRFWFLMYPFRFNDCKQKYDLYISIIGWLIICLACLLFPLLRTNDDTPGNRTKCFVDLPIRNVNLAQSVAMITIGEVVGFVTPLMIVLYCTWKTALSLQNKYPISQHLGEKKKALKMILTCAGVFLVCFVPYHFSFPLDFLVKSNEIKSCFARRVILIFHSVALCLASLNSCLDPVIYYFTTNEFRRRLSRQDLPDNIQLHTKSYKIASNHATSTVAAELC
# T2 sequence (Q8BFU7 whole entry): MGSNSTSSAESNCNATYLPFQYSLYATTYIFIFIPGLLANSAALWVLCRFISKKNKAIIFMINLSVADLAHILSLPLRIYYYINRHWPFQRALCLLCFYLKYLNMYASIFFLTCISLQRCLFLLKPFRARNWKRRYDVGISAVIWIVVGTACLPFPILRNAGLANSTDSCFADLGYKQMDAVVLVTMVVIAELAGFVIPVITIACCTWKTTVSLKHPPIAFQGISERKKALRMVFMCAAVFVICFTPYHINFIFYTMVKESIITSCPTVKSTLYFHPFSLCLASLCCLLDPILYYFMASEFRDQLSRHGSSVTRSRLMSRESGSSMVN
# T3 sequence (Q9R1K6 whole entry): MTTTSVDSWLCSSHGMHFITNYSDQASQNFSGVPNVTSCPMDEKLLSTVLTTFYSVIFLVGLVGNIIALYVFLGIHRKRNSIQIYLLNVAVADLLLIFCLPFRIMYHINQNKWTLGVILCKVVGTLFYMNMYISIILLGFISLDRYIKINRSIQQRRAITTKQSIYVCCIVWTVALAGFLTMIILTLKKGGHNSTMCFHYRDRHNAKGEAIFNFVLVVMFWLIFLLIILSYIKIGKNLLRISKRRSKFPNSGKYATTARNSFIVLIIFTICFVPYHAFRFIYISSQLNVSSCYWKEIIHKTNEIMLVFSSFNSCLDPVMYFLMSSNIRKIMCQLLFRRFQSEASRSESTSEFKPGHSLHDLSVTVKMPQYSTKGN
Structure (SMILES),melting point,GPR174/LPS3 agonistic activity (mouse GPR174),EC50 (mouse GPR174),P2Y10/LPS2 agonistic activity (mouse P2Y10),EC50 (mouse P2Y10),selectivity for P2Y10 (mouse P2Y10),GPR34/LPS1 agonistic activity (mouse GPR34)
"CCCCCCCCCCCOc1ccccc1CCC(=O)Oc1ccc(OP(=O)(O)OC[C@H](N)C(=O)O)cc1 [Example 3, O-(hydroxy(4-((3-(2-(undecyloxy)phenyl)propanoyl)oxy)phenoxy)phosphoryl)-L-serine]",,+~++,0.34 µM,+++~++++,0.007 µM,agonists having selectivity for P2Y10,−
"N[C@@H](COP(=O)(O)OCc1cccc(OC(=O)CCc2ccccc2OCc2cccc(Oc3ccccc3)c2)c1)C(=O)O [Example 10, O-(hydroxy((3-((3-(2-((3-phenoxybenzyl)oxy)phenyl)propanoyl)oxy)benzyl)oxy)phosphoryl)-L-serine]",,+~++,,++,,,−~+
"CCCCCCCCCCCOc1ccccc1CCC(=O)OCc1cccc(OP(=O)(O)OC[C@H](N)C(=O)O)c1 [Example 6, O-(hydroxy(3-(((3-(2-(undecyloxy)phenyl)propanoyl)oxy)methyl)phenoxy)phosphoryl)-L-serine]",,+~++,,++++,0.0033 µM,agonists having selectivity for P2Y10,−~++
"CCCCCCCCCCCOc1ccccc1CCC(=O)Oc1ccc(OP(=O)(O)OC[C@H](N)C(=O)O)cc1 (as salt: salt) [Example 3, O-(hydroxy(4-((3-(2-(undecyloxy)phenyl)propanoyl)oxy)phenoxy)phosphoryl)-L-serine]",140.5 to 142 °C,,,,,,
"CCCCCCCCCCCOc1ccccc1CCC(=O)Oc1cccc(COP(=O)(O)OC[C@H](N)C(=O)O)c1 [Example 9, O-(hydroxy((3-((3-(2-(undecyloxy)phenyl)propanoyl)oxy)benzyl)oxy)phosphoryl)-L-serine]",,−,,+++,0.03 µM,agonists having selectivity for P2Y10,−
"N[C@@H](COP(=O)(O)Oc1cccc(COC(=O)CCc2ccccc2OCc2cccc(Oc3ccccc3)c2)c1)C(=O)O (as salt: TFA) [Example 7, O-(hydroxy(3-(((3-(2-((3-phenoxybenzyl)oxy)phenyl)propanoyl)oxy)methyl)phenoxy)phosphoryl)-L-serine]",175 to 185 °C,,,,,,
"CCCCCCCCCCCOc1ccccc1CCC(=O)Oc1cccc(OP(=O)(O)OC[C@H](N)C(=O)O)c1 (as salt: salt) [Example 2, O-(hydroxy(3-((3-(2-(undecyloxy)phenyl)propanoyl)oxy)phenoxy)phosphoryl)-L-serine]",123 to 126.5 °C,,,,,,
"CCCCCCCCCCCOc1ccccc1CCC(=O)OCC#CCOP(=O)(O)OC[C@H](N)C(=O)O [Example 12, O-(hydroxy((4-((3-(2-(undecyloxy)phenyl)propanoyl)oxy)but-2-yn-1-yl)oxy)phosphoryl)-L-serine]",,+,,++++~+++++,0.0015 µM,agonists having selectivity for P2Y10,−
"O=C(O)CCc1ccccc1OCc1cccc(-c2ccccc2)c1 [Example 47, 3-(2-([1,1′-biphenyl]-3-ylmethoxy)phenyl)propanoic acid]",87.8 to 88.8 °C,,,,,,
"CCCCCCCCCCCOc1ccccc1CCC(=O)Oc1cccc(OP(=O)(O)OC[C@H](N)C(=O)O)c1 [Example 2, O-(hydroxy(3-((3-(2-(undecyloxy)phenyl)propanoyl)oxy)phenoxy)phosphoryl)-L-serine]",,−,,+++~++++,0.014 µM,agonists having selectivity for P2Y10,−
"O=C(O)CCc1cccc(OCc2cccc(-c3ccccc3)c2)c1 [Example 48, 3-(3-([1,1′-biphenyl]-3-ylmethoxy)phenyl)propanoic acid]",90 to 91 °C,,,,,,
"N[C@@H](COP(=O)(O)Oc1cccc(COC(=O)CCc2ccccc2OCc2cccc(Oc3ccccc3)c2)c1)C(=O)O [Example 7, O-(hydroxy(3-(((3-(2-((3-phenoxybenzyl)oxy)phenyl)propanoyl)oxy)methyl)phenoxy)phosphoryl)-L-serine]",,−~+,,++~+++,0.031 µM,agonists having selectivity for P2Y10,−
"CCCCCCCC/C=C\CCCCCCCC(=O)OC[C@@H](O)COP(=O)(O)OC[C@H](N)C(=O)O [compound 1, reference compound]",,+++,0.081 µM,+++,0.0083 µM,,+++
"CCCCCCCCCCCOc1ccccc1CCC(=O)OCc1ccccc1OP(=O)(O)OC[C@H](N)C(=O)O [Example 4, O-(hydroxy(2-(((3-(2-(undecyloxy)phenyl)propanoyl)oxy)methyl)phenoxy)phosphoryl)-L-serine]",,+,,++,,,+++

# Continued, in another order:
melting point,Structure (SMILES),GPR174/LPS3 agonistic activity (mouse GPR174),EC50 (mouse GPR174),P2Y10/LPS2 agonistic activity (mouse P2Y10),EC50 (mouse P2Y10),selectivity for P2Y10 (mouse P2Y10),GPR34/LPS1 agonistic activity (mouse GPR34)
184 to 193 °C,CCCCCCCCCCCOc1ccccc1CCC(=O)OCc1ccc(OP(=O)(O)OC[C@H](N)C(=O)O)cc1 (as salt: TFA),,,,,,
104.5 to 106 °C,"Cc1ccc(Oc2cccc(COc3ccccc3CCC(=O)O)c2)cc1 [Example 33, 3-(2-((3-(p-tolyloxy)benzyl)oxy)phenyl)propanoic acid]",,,,,,
111.1 to 112.5 °C,"CC(C)(C)c1ccc(Oc2cccc(COc3ccccc3CCC(=O)O)c2)cc1 [Example 42, 3-(2-((3-(4-(tert-butyl)phenoxy)benzyl)oxy)phenyl)propanoic acid]",,,,,,
117.5 to 120 °C,"Cc1cccc(C)c1-c1cccc(COc2ccccc2CCC(=O)O)c1 [Example 36, 3-(2-((2′,6′-dimethyl[1,1′-biphenyl]-3-yl)methoxy)phenyl)propanoic acid]",,,,,,
